Laboratory results reported in patent EP0377642B1, “HERBICIDES FOR WEED CONTROL IN RICE” (E.I. DU PONT DE NEMOURS AND COMPANY, priority 1987, dated 1989).

Key:
Assay type in all cases: in vivo
Cyperus difformis [1] = test: Herbicidal efficacy alone and with 2,4-D in Malaysia, applied 30 days after seeding (Table 8); conditions: 22 days after treatment
From the text: (§1) Methyl 2-[[[[(4-methoxy-6-methyl-1,3,5-triazin-2-yl)amino]carbonyl]amino]sulfonyl]benzoate (Compound 1) and mixtures thereof with other compounds were applied as a spray (using a hand sprayer) to rice (either transplanted or direct seeded) in several rice growing areas in Southeast Asia and in the U.S. Tables 1-28 contain the results of these tests and clearly exemplify the utility of this invention. The details of each application are included in the appropriate table. [drawing 2]

FIMBRISTYLIS MILIACEA [2] = test: as above; conditions: 22 days after treatment
From the text: as §1

Marsilea crenata = test: as above; conditions: 22 days after treatment
From the text: as §1

Monochoria vaginalis [3] = test: as above; conditions: 22 days after treatment
From the text: as §1

Scirpus grossus = test: as above; conditions: 22 days after treatment
From the text: as §1

Sphenoclea zeylanica [4] = test: as above; conditions: 22 days after treatment
From the text: as §1

Cyperus difformis [5] = test: Herbicidal efficacy with Bensulfuron methyl and 2,4-D in Thailand (Table 18); conditions: 1500 GAI/HA; 13 days after treatment
From the text: as §1

Ludwigia linifolia [6] = test: as above; conditions: 1500 GAI/HA; 13 days after treatment
From the text: as §1

Sphenoclea zeylanica [7] = test: as above; conditions: 1500 GAI/HA; 13 days after treatment
From the text: as §1

rice [8] = test: as above; conditions: 1500 GAI/HA; 13 days after treatment
From the text: as §1

Cuperus difformis = test: Herbicidal efficacy with Bensulfuron methyl and 2,4-D in Thailand (Table 19); conditions: 1500 GAI/HA; 13 days after treatment
From the text: as §1

Ludwigia linifolia [9] = test: as above; conditions: 1500 GAI/HA; 13 days after treatment
From the text: as §1

Sphenoclea zeylanica [10] = test: as above; conditions: 1500 GAI/HA; 13 days after treatment
From the text: as §1

rice [11] = test: as above; conditions: 1500 GAI/HA; 13 days after treatment
From the text: as §1

Cuperus iria = test: Herbicidal efficacy with Bensulfuron methyl and 2,4-D in Thailand (Table 20); conditions: 1500 GAI/HA; 14 days after treatment
From the text: as §1

FIMBRISTYLIS MILIACEA [12] = test: as above; conditions: 1500 GAI/HA; 14 days after treatment
From the text: as §1

Ludwigia linifolia [13] = test: as above; conditions: 1500 GAI/HA; 14 days after treatment
From the text: as §1

Sphenoclea zeylanica [14] = test: as above; conditions: 1500 GAI/HA; 14 days after treatment
From the text: as §1

rice [15] = test: as above; conditions: 1500 GAI/HA; 14 days after treatment
From the text: as §1

FIMBRISTYLIS MILIACEA [16] = test: Herbicidal efficacy with 2,4-D in Malaysia (Table 21); conditions: 1000 GAI/HA; 42 days after treatment
From the text: as §1

Ludwigia adscendens = test: as above; conditions: 1000 GAI/HA; 42 days after treatment
From the text: as §1

Masilea crenata = test: as above; conditions: 1000 GAI/HA; 42 days after treatment
From the text: as §1

Monochoria vaginalis [17] = test: as above; conditions: 1000 GAI/HA; 42 days after treatment
From the text: as §1

Saggittaria guayanensis = test: as above; conditions: 1000 GAI/HA; 42 days after treatment
From the text: as §1

Scirpus spp. = test: as above; conditions: 1000 GAI/HA; 42 days after treatment
From the text: as §1

## O=C(O)COc1ccc(Cl)cc1Cl [2,4-D, 2,4-dichlorophenoxyacetic acid]
Cyperus difformis [1]; 500 GAI/HA
  % CONTROL CD: 95%
Cyperus difformis [1]; 1000 GAI/HA
  % CONTROL CD: 100%
FIMBRISTYLIS MILIACEA [2]; 500 GAI/HA
  % CONTROL FM: 100%
FIMBRISTYLIS MILIACEA [2]; 1000 GAI/HA
  % CONTROL FM: 100%
Marsilea crenata; 500 GAI/HA
  % CONTROL MC: 0%
Marsilea crenata; 1000 GAI/HA
  % CONTROL MC: 0%
Monochoria vaginalis [3]; 500 GAI/HA
  % CONTROL MV: 90%
Monochoria vaginalis [3]; 1000 GAI/HA
  % CONTROL MV: 100%
Scirpus grossus; 500 GAI/HA
  % CONTROL SG: 50%
Scirpus grossus; 1000 GAI/HA
  % CONTROL SG: 75%
Sphenoclea zeylanica [4]; 500 GAI/HA
  % CONTROL SZ: 100%
Sphenoclea zeylanica [4]; 1000 GAI/HA
  % CONTROL SZ: 100%
Cyperus difformis [5]
  % CONTROL OR INJURY CD: 100%
Ludwigia linifolia [6]
  % CONTROL OR INJURY LL: 100%
Sphenoclea zeylanica [7]
  % CONTROL OR INJURY SZ: 90%
Rice [8]
  % CONTROL OR INJURY RICE: 0%
Cuperus difformis
  % CONTROL OR INJURY CD: 100%
Ludwigia linifolia [9]
  % CONTROL OR INJURY LL: 97%
Sphenoclea zeylanica [10]
  % CONTROL OR INJURY SZ: 86%
Rice [11]
  % CONTROL OR INJURY RICE: 0%
Cuperus iria
  % CONTROL OR INJURY CI: 100%
FIMBRISTYLIS MILIACEA [12]
  % CONTROL OR INJURY FM: 100%
Ludwigia linifolia [13]
  % CONTROL OR INJURY LL: 100%
Sphenoclea zeylanica [14]
  % CONTROL OR INJURY SZ: 33.3%
Rice [15]
  % CONTROL OR INJURY RICE: 0%
FIMBRISTYLIS MILIACEA [16]
  % CONTROL OR INJURY FM: 73%
Ludwigia adscendens
  % CONTROL OR INJURY LA: 93%
Masilea crenata
  % CONTROL OR INJURY MC: 56%
Monochoria vaginalis [17]
  % CONTROL OR INJURY MV: 100%
Saggittaria guayanensis
  % CONTROL OR INJURY SG: 74%
Scirpus spp.
  % CONTROL OR INJURY SS: 55%
